How the values were obtained:
[1] = test system: Phakopsora pachyrhizi; assay: Fungicidal activity against Phakopsora pachyrhizi / soybean / leaf disc preventative (Asian soybean rust); assay type: in vivo; details: foliar, 200 ppm in the applied formulation, soybean leaf disks, compared to untreated, read-out: disease control
Procedure: Leaf disks or leaf segments of various plant species are cut from plants grown in a greenhouse. The cut leaf disks or segments are placed in multiwell plates (24-well format) onto water agar. The leaf disks are sprayed with a test solution before (preventative) or after (curative) inoculation. Compounds to be tested are prepared as DMSO solutions (max. 10 mg/mL) which are diluted to the appropriate concentration with 0.025% Tween20 just before spraying. The inoculated leaf disks or segments are incubated under defined conditions (temperature, relative humidity, light, etc.) according to the respective test system. A single evaluation of disease level is carried out 3 to 14 days after inoculation, depending on the pathosystem. Percent disease control relative to the untreated check leaf disks or segments is then calculated. Soybean leaf disks are placed on water agar in multiwell plates (24-well format) and sprayed with the formulated test compound diluted in water. One day after application leaf discs are inoculated by spraying a spore suspension on the lower leaf surface. After an incubation period in a climate cabinet of 24-36 hours in darkness at 20° C. and 75% rh leaf disc are kept at 20° C. with 12 h light/day and 75% rh. The activity of a compound is assessed as percent disease control compared to untreated when an appropriate level of disease damage appears in untreated check leaf disks (12 to 14 days after application). The following compounds at 200 ppm in the applied formulation give at least 80% disease control in this test when compared to untreated control leaf disks under the same conditions, which show extensive disease development.

[2] = test system: Puccinia recondita f. Sp. Tritici; assay: Fungicidal activity against Puccinia recondita f. sp. tritici / wheat / leaf disc curative (brown rust); assay type: in vivo; details: foliar, 24 h, 200 ppm in the applied formulation, wheat leaf segments cv. Kanzler, curative (applied 1 day after inoculation), compared to untreated, read-out: disease control
Outline: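 Wheat leaf segments (cv. Kanzler) on agar were inoculated with brown rust spores, kept dark at 19 °C and 75% RH, then sprayed 1 day later with compound (DMSO stock diluted in 0.025% Tween20). Under 12 h light/12 h dark at 19 °C, percent disease control versus untreated was scored 6–8 days after application; 200 ppm applied.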

[3] = test system: Puccinia recondita f. Sp. Tritici; assay: Fungicidal activity against Puccinia recondita f. sp. tritici / wheat / leaf disc preventative (brown rust); assay type: in vivo; details: foliar, 200 ppm in the applied formulation, wheat leaf segments cv. Kanzler, preventative (inoculated 1 day after application), compared to untreated, read-out: disease control
Outline: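 Segments of wheat cv. Kanzler on water agar were sprayed with compound and inoculated with spores 1 day later. They were kept at 19 °C, 75% rh and 12 h light/12 h dark. Percent disease control versus untreated was scored 7–9 days after application; compounds were tested at 200 ppm.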

[4] = test system: Glomerella lagenarium (Colletotrichum lagenarium); assay: Fungicidal activity against Glomerella lagenarium (Colletotrichum lagenarium) liquid culture / cucumber / preventative (anthracnose); assay type: cell-based; details: Colletotrichum orbiculare; 20 ppm in the applied formulation; liquid culture (PDB), inhibition of growth measured photometrically 3 to 4 days after application; compared to untreated; read-out: disease control
Outline: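 Conidia from cryogenic storage mixed into potato dextrose broth and added to compound in DMSO in microtiter plates. Incubated at 24° C.; growth inhibition read photometrically 3 to 4 days after application. Disease control expressed relative to untreated control, with compound at 20 ppm in the applied formulation.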

CN(C)C(=O)c1ccnn1Cc1ccc(-c2noc(C(F)(F)F)n2)s1 [Compound 1.58, N,N-dimethyl-2-[[5-[5-(trifluoromethyl)-1,2,4-oxadiazol-3-yl]-2-thienyl]methyl]pyrazole-3-carboxamide]
≥ 80%: pest or weed control at 200 ppm [1] | pest or weed control at 200 ppm [2] | pest or weed control at 200 ppm [3]

COC(=O)c1ncnn1Cc1ccc(-c2noc(C(F)(F)F)n2)s1 [Compound 1.55, methyl 2-[[5-[5-(trifluoromethyl)-1,2,4-oxadiazol-3-yl]-2-thienyl]methyl]-1,2,4-triazole-3-carboxylate]
≥ 80%: pest or weed control at 200 ppm [1] | inhibition of growth at 20 ppm [4] | pest or weed control at 200 ppm [2] | pest or weed control at 200 ppm [3]

FC(F)(F)c1nc(-c2ccc(Cn3ccnc3)s2)no1 [Compound 1.17, 3-[5-(imidazol-1-ylmethyl)-2-thienyl]-5-(trifluoromethyl)-1,2,4-oxadiazole]
≥ 80%: pest or weed control at 200 ppm [1] | inhibition of growth at 20 ppm [4] | pest or weed control at 200 ppm [2] | pest or weed control at 200 ppm [3]

COC(=O)c1ccn(Cc2ccc(-c3noc(C(F)(F)F)n3)s2)n1 [Compound 1.53, methyl 1-[[5-[5-(trifluoromethyl)-1,2,4-oxadiazol-3-yl]-2-thienyl]methyl]pyrazole-3-carboxylate]
≥ 80%: pest or weed control at 200 ppm [1] | inhibition of growth at 20 ppm [4] | pest or weed control at 200 ppm [2] | pest or weed control at 200 ppm [3]

CCOC(=O)c1ncnn1Cc1ccc(-c2noc(C(F)(F)F)n2)s1 [Compound 1.41, ethyl 2-[[5-[5-(trifluoromethyl)-1,2,4-oxadiazol-3-yl]-2-thienyl]methyl]-1,2,4-triazole-3-carboxylate]
≥ 80%: pest or weed control at 200 ppm [1] | inhibition of growth at 20 ppm [4] | pest or weed control at 200 ppm [2] | pest or weed control at 200 ppm [3]

COCc1nn(Cc2ccc(-c3noc(C(F)(F)F)n3)s2)cc1C(=O)OC [Compound 1.19, methyl 3-(methoxymethyl)-1-[[5-[5-(trifluoromethyl)-1,2,4-oxadiazol-3-yl]-2-thienyl]methyl]pyrazole-4-carboxylate]
≥ 80%: pest or weed control at 200 ppm [1] | inhibition of growth at 20 ppm [4] | pest or weed control at 200 ppm [2] | pest or weed control at 200 ppm [3]

CCOC(=O)c1ccnn1Cc1ccc(-c2noc(C(F)(F)F)n2)s1 [Compound 1.45, ethyl 2-[[5-[5-(trifluoromethyl)-1,2,4-oxadiazol-3-yl]-2-thienyl]methyl]pyrazole-3-carboxylate]
≥ 80%: pest or weed control at 200 ppm [1] | inhibition of growth at 20 ppm [4] | pest or weed control at 200 ppm [2] | pest or weed control at 200 ppm [3]

CCOC(=O)c1cnn(C(C)c2ccc(-c3noc(C(F)(F)F)n3)s2)c1 (centres unmarked) [Compound 1.30, ethyl 1-[1-[5-[5-(trifluoromethyl)-1,2,4-oxadiazol-3-yl]-2-thienyl]ethyl]pyrazole-4-carboxylate]
≥ 80%: pest or weed control at 200 ppm [1] | inhibition of growth at 20 ppm [4] | pest or weed control at 200 ppm [2] | pest or weed control at 200 ppm [3]

Nc1nc(C(F)F)nn1Cc1ccc(-c2noc(C(F)(F)F)n2)s1 [Compound 1.14, 5-(difluoromethyl)-2-[[5-[5-(trifluoromethyl)-1,2,4-oxadiazol-3-yl]-2-thienyl]methyl]-1,2,4-triazol-3-amine]
≥ 80%: pest or weed control at 200 ppm [1] | inhibition of growth at 20 ppm [4] | pest or weed control at 200 ppm [2] | pest or weed control at 200 ppm [3]

Cc1cc(C)n(Cc2ccc(-c3noc(C(F)(F)F)n3)s2)n1 [Compound 1.21, 3-[5-[(3,5-dimethylpyrazol-1-yl)methyl]-2-thienyl]-5-(trifluoromethyl)-1,2,4-oxadiazole]
≥ 80%: pest or weed control at 200 ppm [1] | inhibition of growth at 20 ppm [4] | pest or weed control at 200 ppm [2] | pest or weed control at 200 ppm [3]

COc1ccc2ncn(Cc3ccc(-c4noc(C(F)(F)F)n4)s3)c2c1 [Compound 1.23, 3-[5-[(6-methoxybenzimidazol-1-yl)methyl]-2-thienyl]-5-(trifluoromethyl)-1,2,4-oxadiazole]
≥ 80%: pest or weed control at 200 ppm [1] | inhibition of growth at 20 ppm [4] | pest or weed control at 200 ppm [2] | pest or weed control at 200 ppm [3]

CN(C)c1ncnn1Cc1ccc(-c2noc(C(F)(F)F)n2)s1 [Compound 1.13, N,N-dimethyl-2-[[5-[5-(trifluoromethyl)-1,2,4-oxadiazol-3-yl]-2-thienyl]methyl]-1,2,4-triazol-3-amine]
≥ 80%: pest or weed control at 200 ppm [1] | inhibition of growth at 20 ppm [4] | pest or weed control at 200 ppm [2] | pest or weed control at 200 ppm [3]

COc1ccc2c(c1)ncn2Cc1ccc(-c2noc(C(F)(F)F)n2)s1 [Compound 1.24, 3-[5-[(5-methoxybenzimidazol-1-yl)methyl]-2-thienyl]-5-(trifluoromethyl)-1,2,4-oxadiazole]
≥ 80%: pest or weed control at 200 ppm [1] | inhibition of growth at 20 ppm [4] | pest or weed control at 200 ppm [2] | pest or weed control at 200 ppm [3]

COC(=O)c1ncn(Cc2ccc(-c3noc(C(F)(F)F)n3)s2)n1 [Compound 1.6, methyl 1-[[5-[5-(trifluoromethyl)-1,2,4-oxadiazol-3-yl]-2-thienyl]methyl]-1,2,4-triazole-3-carboxylate]
≥ 80%: pest or weed control at 200 ppm [1] | inhibition of growth at 20 ppm [4] | pest or weed control at 200 ppm [2] | pest or weed control at 200 ppm [3]

CCCOC(=O)c1ccnn1Cc1ccc(-c2noc(C(F)(F)F)n2)s1 [Compound 1.47, propyl 2-[[5-[5-(trifluoromethyl)-1,2,4-oxadiazol-3-yl]-2-thienyl]methyl]pyrazole-3-carboxylate]
≥ 80%: pest or weed control at 200 ppm [1] | inhibition of growth at 20 ppm [4] | pest or weed control at 200 ppm [2] | pest or weed control at 200 ppm [3]

CC(c1ccc(-c2noc(C(F)(F)F)n2)s1)N1CCCCC1=O (centres unmarked) [Compound 1.34, 1-[1-[5-[5-(trifluoromethyl)-1,2,4-oxadiazol-3-yl]-2-thienyl]ethyl]piperidin-2-one]
≥ 80%: pest or weed control at 200 ppm [1] | inhibition of growth at 20 ppm [4] | pest or weed control at 200 ppm [2] | pest or weed control at 200 ppm [3]

CCOC(=O)c1cnn(Cc2ccc(-c3noc(C(F)(F)F)n3)s2)c1 [Compound 1.1, ethyl 1-[[5-[5-(trifluoromethyl)-1,2,4-oxadiazol-3-yl]-2-thienyl]methyl]pyrazole-4-carboxylate]
≥ 80%: pest or weed control at 200 ppm [1] | inhibition of growth at 20 ppm [4] | pest or weed control at 200 ppm [2] | pest or weed control at 200 ppm [3]

FC(F)(F)c1nc(-c2ccc(Cn3cnc4ccccc43)s2)no1 [Compound 1.25, 3-[5-(benzimidazol-1-ylmethyl)-2-thienyl]-5-(trifluoromethyl)-1,2,4-oxadiazole]
≥ 80%: pest or weed control at 200 ppm [1] | inhibition of growth at 20 ppm [4] | pest or weed control at 200 ppm [2] | pest or weed control at 200 ppm [3]

FC(F)(F)c1nc(-c2ccc(Cn3ccc4cccnc43)s2)no1 [Compound 1.8, 3-[5-(pyrrolo[2,3-b]pyridin-1-ylmethyl)-2-thienyl]-5-(trifluoromethyl)-1,2,4-oxadiazole]
≥ 80%: inhibition of growth at 20 ppm [4] | pest or weed control at 200 ppm [2] | pest or weed control at 200 ppm [3]

CCCNC(=O)c1ccn(Cc2ccc(-c3noc(C(F)(F)F)n3)s2)n1 [Compound 1.137, N-propyl-1-[[5-[5-(trifluoromethyl)-1,2,4-oxadiazol-3-yl]-2-thienyl]methyl]pyrazole-3-carboxamide]
≥ 80%: inhibition of growth at 20 ppm [4] | pest or weed control at 200 ppm [2] | pest or weed control at 200 ppm [3]

C#CCNC(=O)c1ncn(Cc2ccc(-c3noc(C(F)(F)F)n3)s2)n1 [Compound 1.98, N-prop-2-ynyl-1-[[5-[5-(trifluoromethyl)-1,2,4-oxadiazol-3-yl]-2-thienyl]methyl]-1,2,4-triazole-3-carboxamide]
≥ 80%: inhibition of growth at 20 ppm [4] | pest or weed control at 200 ppm [2] | pest or weed control at 200 ppm [3]

CC(C)CNC(=O)c1cnn(Cc2ccc(-c3noc(C(F)(F)F)n3)s2)c1 [Compound 1.109, N-isobutyl-1-[[5-[5-(trifluoromethyl)-1,2,4-oxadiazol-3-yl]-2-thienyl]methyl]pyrazole-4-carboxamide]
≥ 80%: inhibition of growth at 20 ppm [4] | pest or weed control at 200 ppm [2] | pest or weed control at 200 ppm [3]
